# Assays:
# [1] = tested on: replication forks in HeLa cells; test: DNA fibre assay (replication fork progression); format: cell-based, human; settings: for median IdU tract length: 40 μM added during 30 min IdU pulse, mock 6.10 μm
# Description: Replication tracks were sequentially pulse-labelled with CldU (red) and IdU (green) and the addition of 1 or 2 during the second (IdU) pulse enabled us to evaluate the immediate effect of each complex on individual replication fork progression in S phase cells (Figs 3a and S12).
# DNA fibre assays and immunofluorescent staining were performed as described elsewhere, employing sequential CldU and IdU incubation times of 30 mins each. The second nucleotide (IdU) was incubated in the presence of 1, 2 (40 μM) or a DMSO (0.5%) control. Fibres were visualised with a Leica DMRB microscope with a DFC360FX camera. Lengths of CldU- and IdU-labeled tracts were measured by ImageJ software. Statistical analysis was performed using GraphPad Prism software using unpaired t-test.
# γH2AX in HeLa cells = test: γH2AX expression after irradiation (Western blot densitometry); format: cell-based, human; settings: 40 μM 20 h then 6 Gy IR, harvested 1 h after irradiation
# Description: Chemotherapeutics are often used in combination with external beam ionising radiation in the treatment of cancers and many drugs that inhibit DNA replication are potent radiosensitizers. To examine the possibility that 1 may function as a radiosensitizer, HeLa cells were pre-treated with 1 for 20 h before irradiation (0–6 Gy ionising irradiation (IR); ^137Cs-γ-rays; dose rate = 0.809 Gy min^−1). After further incubation for 4 h with the complex, the relative impact on cell viability was assessed by clonogenic survival. Complex 2, which achieves its impact on cell proliferation through non-DNA damage-based autophagy, was included in parallel for comparison. […] The formation of γH2AX is an early response to IR-induced DSB generation and may provide an indication of DNA damage levels. […]
# Figure 6 [Ru(dppz)2(PIP)]^2+ sensitises human cancer cells to external beam ionising radiation. […] Survival fraction (S. F.) as a result of each treatment was determined by clonogenic assay and is presented as the mean +/− SD of two independent experiments where each experiment was performed in triplicate. […] Cells were harvested 1 h after irradiation and lysates analysed by Western blotting (left). γH2AX levels were measured by densitometry relative to β-actin loading controls and normalised to DMSO + 6 Gy data (right). […]
# [2] = octanol/water partition coefficient (Log P)
# [3] = tested on: cleaved caspase-3 and LC3-II in HeLa cells; test: Western blotting for cell death markers (cleaved caspase 3, LC3-II); format: cell-based, human; settings: 24 h, concentrations centred on IC50
# Description: Figure 2 Complexes 1 and 2 are internalised by cancer cells and impact proliferation. (a) Effect of 40 μM 1 or 2 (0–72 h incubation time) on numbers of viable (left) and non-viable (right, data expressed as % total cells, independent of viability) HeLa cells (in triplicate, +/− SD). […] (c) Intracellular Ru levels of HeLa cells treated with 1 or 2 (40 μM, 24 h), as determined by ICP-MS. (d) Ru levels within isolated subcellular fractions of HeLa cells treated with 1 or 2 (40 μM, 24 h). Fractions: C = cytoplasm and cytoskeleton, M = membrane, N = nucleus. Successful fractionation confirmed by immunoblotting (right). All ICP-MS data were normalised to protein content of the corresponding fraction and are the mean of two independent experiments +/− SEM. (e) Epifluorescence microscopy of HeLa cells treated with 1 or 2 (40 μM, 24 h) showing intracellular MLCT emission. Co-staining with nuclear stain DAPI included. Scale bars = 20 μm.
# Cells were incubated as stated, washed with cold PBS and lysed in RIPA (radioimmunoprecipitation assay) buffer containing protease inhibitors (10 μg/ml leupeptin, 2 μg/ml pepstatin, 50 μg/ml antipain, 2 μg/ml aprotinin, 20 μg/ml chyprostatin, 2 μg/ml benzamidine, 1 mM phenylmethanesulfonyl fluoride) and phosphatase inhibitors (50 mM NaF, 1 mM Na3VO4 and 20 mM β-glycerophosphate). Aliquots of cell lysates (5–20 μg total protein) were resolved by NuPAGE® 4–12% Bis-Tris gels and LDS-PAGE, transferred onto nitrocellulose membrane and probed with primary antibodies in 5% BSA (bovine serum albumin) solutions. Reactions were visualised with a suitable secondary antibody conjugated with horseradish peroxidase (Thermo). Pierce ECL (Thermo) or WesternSurePREMIUM (Li-Cor) chemiluminescent substrates with X-ray development (Fuji medical film and Optimax 2010 processor) or digital analysis (LiCor C-Digit Blot Scanner) were used to visualise protein expression. Li-Cor Image Studio Lite software was used for densitometry data acquisition.
# HeLa cells = test: cell-cycle analysis by PI flow cytometry; format: cell-based, human; settings: 40 μM, 24 h
# Description: Figure 4 [Ru(dppz)2(PIP)]^2+ induces Chk1 checkpoint kinase activation and G1-S cell-cycle arrest. […] See SI for densitometry. (c) Cell-cycle distributions of HeLa cells incubated with DMSO (0.2%), 1 or 2 at the stated concentrations and time. DNA content was quantified using propidium iodide (PI) and analysed by flow cytometry. […] Data mean of three independent experiments +/− SD. […] They are copied as bare numbers, left to right. / The gate numbers in panel c are very small, so 3, 5, 6, 8 and 9 cannot be told apart with certainty. All the values below are best readings. / DMSO: 0.86, 57.4, 22.5, 16.8 uncertain / 1 (40 μM, 3 h): 0.46, 72.7, 13.5, 8.77 uncertain / 1 (40 μM, 8 h): 1.69, 73.2, 15.3, 3.6 uncertain / 1 (40 μM, 24 h): 1.2, 72.9, 15.8, 6.47 uncertain. […] 32.4 is partly overlapped by the peak line.
# Cells were washed with PBS and detached using Trypsin. After centrifugation at 1000 rpm for 5 min, cells were fixed in cold 70% ethanol for 30 mins, centrifuged and re-suspended in PBS. Samples were stained using 10 μg/ml propidium iodide (PI) and 200 μg/ml RNAase A for 30 mins before FACS analysis using a Biosciences LSRII Flow Cytometer. A minimum of 10,000 cells were counted for each sample and data were processed using FloJo software. […]
SMILES,median IdU tract length [1],"stalled replication forks (red tract only), of total replication forks ([1]; 40 μM during IdU pulse, mock 7.5 +/− 1%)",γH2AX levels compared to IR alone (γH2AX in HeLa cells),Log P [2],generation of apoptosis marker cleaved caspase-3 [3],levels of autophagy marker LC3-II [3],impact on replication fork progression ([1]; 40 μM during IdU pulse),change in cell-cycle distribution compared to controls (HeLa cells)
"[Ru+2].c1ccc(-c2nc3c4cccnc4c4ncccc4c3[nH]2)cc1.c1ccc2nc3c4cccnc4c4ncccc4c3nc2c1.c1ccc2nc3c4cccnc4c4ncccc4c3nc2c1 [Complex 1, [Ru(dppz)2(PIP)]^2+]",2.18 μm,17 +/− 1%,approximately two-fold greater,0.403,no generation of the apoptosis marker cleaved caspase-3,no detectable increase,–,–
"Oc1ccc(-c2nc3c4cccnc4c4ncccc4c3[nH]2)cc1.[Ru+2].c1ccc2nc3c4cccnc4c4ncccc4c3nc2c1.c1ccc2nc3c4cccnc4c4ncccc4c3nc2c1 [Complex 2, [Ru(dppz)2(p-HPIP)]^2+]",6.24 μm,–,no such increase in γH2AX expression,0.076,no generation of the apoptosis marker cleaved caspase-3,greater in cells treated with 2 at IC50 concentrations or greater compared to untreated,negligible impact on replication fork progression,no change in cell-cycle distribution

# From article PMC4997316, “A ruthenium polypyridyl intercalator stalls DNA replication forks, radiosensitizes human cancer cells and is enhanced by Chk1 inhibition” (Scientific Reports, 2016)
